Test results as given in ChEMBL document CHEMBL1201862, “PubChem BioAssay data set” (2004).
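Protocol summary: plate cells (96-well), add compound at 5 concentrations, incubate 48 h, interpolate endpoints linearly. Here, GI50 denotes the concentration required for 50% inhibition of growth.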 Active and inactive are the calls of the source. Cut-off read from the data, not from the text of the source: active = GI50 up to about 1.1 µM and inactive = higher.

Legend:
Experiment in all cases: inhibition of tumour cell growth, NCI panel, 48 h
TK-10 = tested on: TK-10
OVCAR-5 = tested on: OVCAR-5
HOP-62 = tested on: HOP-62
MDA-N = tested on: MDA-N
SK-MEL-2 = tested on: SK-MEL-2
OVCAR-8 = tested on: OVCAR-8
CCRF-CEM = tested on: CCRF-CEM
U-251 = tested on: U-251
A549 = tested on: A549
SW-620 = tested on: SW-620
OVCAR-4 = tested on: OVCAR-4
SN12C = tested on: SN12C
MDA-MB-231 = tested on: MDA-MB-231
SF-295 = tested on: SF-295
MOLT-4 = tested on: MOLT-4
RXF 393 = tested on: RXF 393
SF-539 = tested on: SF-539
SR = tested on: SR
HT-29 = tested on: HT-29
COLO 205 = tested on: COLO 205

Measured: GI50

O=C(O)/C(Cc1c[nH]nn1)=N\O
inactive: TK-10 > 100 µM | OVCAR-5 > 100 µM | HOP-62 > 100 µM | MDA-N > 100 µM | SK-MEL-2 > 100 µM | OVCAR-8 > 100 µM | CCRF-CEM > 100 µM | U-251 > 100 µM | A549 > 100 µM | SW-620 > 100 µM | OVCAR-4 > 100 µM | SN12C > 100 µM | MDA-MB-231 > 100 µM | SF-295 > 100 µM | MOLT-4 > 100 µM | RXF 393 > 100 µM | SF-539 > 100 µM | SR > 100 µM | HT-29 > 100 µM | COLO 205 > 100 µM

COc1ccc2cc(C(=O)CCC(=O)O)ccc2c1
inactive: TK-10 > 100 µM | OVCAR-5 > 100 µM | HOP-62 > 100 µM | MDA-N > 100 µM | SK-MEL-2 > 100 µM | OVCAR-8 > 100 µM | CCRF-CEM > 100 µM | U-251 > 100 µM | A549 > 100 µM | SW-620 > 100 µM | OVCAR-4 > 100 µM | SN12C > 100 µM | MDA-MB-231 > 100 µM | SF-295 > 100 µM | MOLT-4 > 100 µM | RXF 393 > 100 µM | SF-539 > 100 µM | SR > 100 µM | HT-29 > 100 µM | COLO 205 > 100 µM
